Source: ChEMBL document CHEMBL6177971, “Iterative Optimization Yields Stapled Peptides with Superior Pharmacokinetics and Potency for Renal Fibrosis Treatment” (J Med Chem, 2025)
Activity calls are given as the source filed them. No cut-off for these calls is given here. *1 amine or outer side, *2 acyl side, *3 side chain or, on linkers, in order; H or OH if unused. Where a SMILES comes first, the peptide text is derived from it. Bridges are numbered along the chain shown (N, C = ends). [ ]: non-standard residue; d: D form. Gly(pent-4-enyl) = C=CCCC[C@H](N)C(=O)O; Octanediyl(1,8) = C(CCCC[*:2])CCC[*:1]; S5 = C=CCCC[C@](C)(N)C(=O)O; X2 = C(CCC[*:2])CC[*:1]; X4 = C(CC[*:2])C[*:1]

Tests used:
NIH3T3 [1] = assay: Cytotoxicity against mouse NIH3T3 cells assessed as inhibition of cell viability up to 160 uM incubated for 48 hrs by CCK8 assay; assay type: toxicity, cell-based; conditions: nih3t3, 48 h
[2] = Half life of compound; assay type: physicochemical
NIH3T3 [3] = assay: Inhibition of TGF-beta1-induced EMT in mouse NIH3T3 cells assessed as decrease in fibronectin level at 10 uM incubated for 48 hrs by Western blot analysis; assay type: functional, cell-based
NIH3T3 [4] = assay: Inhibition of TGF-beta1-induced EMT in mouse NIH3T3 cells assessed as decrease in alpha-SMA level at 10 uM incubated for 48 hrs by Western blot analysis; assay type: functional, cell-based
[5] = Stability in C57BL/6J mouse serum assessed as proteolysis resistance measured up to 72 hrs by HPLC analysis; assay type: ADME, cell-free
NIH3T3 [6] = assay: Cytotoxicity against mouse NIH3T3 cells assessed as inhibition of cell viability at 10 to 40 uM incubated for 48 hrs by CCK8 assay; assay type: toxicity, cell-based; conditions: nih3t3, 48 h, dose 10-40 µM

Row | Compound | Activity (NIH3T3 [1]) | half-life [2] [h] | inhibition (NIH3T3 [3]) | inhibition (NIH3T3 [4]) | Stability [5] | Activity (NIH3T3 [6])
1 | C[C@@H](NC(=O)[C@H](CCC(N)=O)NC(=O)[C@@H]1CCCN1C(=O)[C@@H](CC(N)=O)NC(=O)[C@H](CCCCN)NC(=O)[C@H](Cc1c[nH]cn1)NC(=O)[C@H](N)CC(=O)O)C(=O)N[C@@H](CCCNC(=N)N)C(N)=O | Non-toxic | 272 | inactive | inactive | – | –
2 | C[C@@H](NC(=O)[C@H](CCC(N)=O)NC(=O)[C@@H]1CCCN1C(=O)[C@@H](CC(N)=O)NC(=O)[C@H](Cc1ccccc1)NC(=O)[C@H](Cc1c[nH]cn1)NC(=O)[C@H](N)CC(=O)O)C(=O)N[C@@H](CCCNC(=N)N)C(N)=O | Non-toxic | 102 | Active | Active | – | –
3 | C=CCCC[C@](C)(NC(=O)[C@H](Cc1c[nH]cn1)NC(=O)[C@@H](CC(=O)O)NC(=O)CCCCCCCCCCCCCCCCC)C(=O)N[C@H](CC(N)=O)C(=O)N1CCC[C@H]1C(=O)N[C@@H](CCC(N)=O)C(=O)N[C@H](C)C(=O)N[C@@H](CCCNC(=N)N)C(N)=O | Toxic | – | Active | Active | – | –
4 | C=CCCC[C@](C)(NC(=O)[C@@H](NC(=O)[C@H](CCC(N)=O)NC(=O)[C@@H]1CCCN1C(=O)[C@](C)(CCCC=C)NC(=O)[C@H](CC(N)=O)NC(=O)[C@H](Cc1c[nH]cn1)NC(=O)[C@@H](N)CC(=O)O)[C@@H](C)CC)C(N)=O (H-DHN[S5]PQI[S5]-NH2) | Non-toxic | 5.67 | Active | Active | Stable | –
5 | C=CCCC[C@](C)(NC(=O)[C@H](Cc1c[nH]cn1)NC(=O)[C@@H](N)CC(=O)O)C(=O)N[C@H]1CSCCCCCCSC[C@@H](C(N)=O)NC(=O)[C@H]([C@@H](C)CC)NC(=O)[C@H](CCC(N)=O)NC(=O)[C@@H]2CCCN2C1=O (H-DH[S5]CPQIC-NH2; linker 4-8 via X2) | Non-toxic | 1.81 | Active | Active | Unstable | –
6 | C=CCCC[C@](C)(NC(=O)[C@H](Cc1c[nH]cn1)NC(=O)[C@@H](CC(=O)O)NC(=O)CCCCCCCCCCC)C(=O)N[C@H]1CSCCCCCCSC[C@@H](C(N)=O)NC(=O)[C@@H](C)NC(=O)[C@H](CCC(N)=O)NC(=O)[C@@H]2CCCN2C1=O | Toxic | 91.6 | Active | Active | Stable | –
7 | C[C@@]1(C(=O)N[C@@H](CCCNC(=N)N)C(N)=O)CCC/C=C\CCC[C@](C)(NC(=O)[C@H](Cc2cnc[nH]2)NC(=O)[C@@H](N)CC(=O)O)C(=O)N[C@@H](CC(N)=O)C(=O)N2CCC[C@H]2C(=O)N[C@@H](CCC(N)=O)C(=O)N1 (H-DH[S5]NPQ[S5]R-NH2; staple (Z) 3-7) | Non-toxic | 1.11 | inactive | inactive | Stable | –
8 | CC[C@H](C)[C@@H]1NC(=O)[C@H](CCC(N)=O)NC(=O)[C@@H]2CCCN2C(=O)[C@@](C)(NC(=O)[C@H](CC(N)=O)NC(=O)[C@H](Cc2c[nH]cn2)NC(=O)[C@@H](N)CC(=O)O)CCC/C=C/CCC[C@@](C)(C(N)=O)NC1=O (H-DHN[S5]PQI[S5]-NH2; staple (E) 4-8) | Non-toxic | 12.3 | inactive | inactive | Stable | –
9 | C=CCCC[C@](C)(NC(=O)[C@H](Cc1c[nH]cn1)NC(=O)[C@@H](CC(=O)O)NC(=O)CCCCCCCCCCCCC)C(=O)N[C@H](CC(N)=O)C(=O)N1CCC[C@H]1C(=O)N[C@@H](CCC(N)=O)C(=O)N[C@H](C)C(=O)N[C@@H](CCCNC(=N)N)C(N)=O | Toxic | – | Active | Active | – | –
10 | C=CCCC[C@](C)(NC(=O)[C@H](Cc1c[nH]cn1)NC(=O)[C@@H](CC(=O)O)NC(=O)CCCCCCCCCCC)C(=O)N[C@H](CC(N)=O)C(=O)N1CCC[C@H]1C(=O)N[C@@H](CCC(N)=O)C(=O)N[C@H](C)C(=O)N[C@@H](CCCNC(=N)N)C(N)=O | Toxic | – | Active | Active | – | –
11 | C=CCCC[C@](C)(NC(=O)[C@H](Cc1c[nH]cn1)NC(=O)[C@H](N)CC(=O)O)C(=O)N[C@H](CC(N)=O)C(=O)N1CCC[C@H]1C(=O)N[C@@H](CCC(N)=O)C(=O)N[C@H](C)C(=O)N[C@@H](CCCNC(=N)N)C(N)=O | Non-toxic | 129 | Active | Active | – | –
12 | C[C@@H](NC(=O)[C@H](CCC(N)=O)NC(=O)[C@@H]1CCCN1C(=O)[C@@H](CC(N)=O)NC(=O)[C@H](CCC(N)=O)NC(=O)[C@H](Cc1c[nH]cn1)NC(=O)[C@H](N)CC(=O)O)C(=O)N[C@@H](CCCNC(=N)N)C(N)=O | Non-toxic | 424 | Active | Active | – | –
13 | C=CCCC[C@](C)(NC(=O)[C@H](Cc1c[nH]cn1)NC(=O)[C@@H](N)CC(=O)O)C(=O)N[C@@H](CS)C(=O)N1CCC[C@H]1C(=O)N[C@@H](CCC(N)=O)C(=O)N[C@H](C(=O)N[C@@H](CS)C(N)=O)[C@@H](C)CC (H-DH[S5]CPQIC-NH2) | Non-toxic | 1.48 | – | – | Stable | –
14 | CC[C@H](C)[C@H](NC(=O)[C@H](CCC(N)=O)NC(=O)[C@@H]1CCCN1C(=O)[C@H](CS)NC(=O)[C@H](CC(N)=O)NC(=O)[C@H](Cc1c[nH]cn1)NC(=O)[C@@H](N)CC(=O)O)C(=O)N[C@@H](CS)C(N)=O (H-DHNCPQIC-NH2) | Non-toxic | 3.82 | – | – | Stable | –
15 | CC[C@H](C)[C@@H]1NC(=O)[C@H](CCC(N)=O)NC(=O)[C@@H]2CCCN2C(=O)[C@H](CC(N)=O)NC(=O)[C@H](CC(N)=O)NC(=O)[C@H](Cc2c[nH]cn2)NC(=O)[C@H](CC(=O)O)NC(=O)[C@H](CCCNC(=N)N)NC1=O (cyclo(DHNNPQIR)) | Non-toxic | 9.97 | Active | Active | – | –
16 | C[C@@H](NC(=O)[C@H](CCC(N)=O)NC(=O)[C@@H]1CCCN1C(=O)[C@@H](CC(N)=O)NC(=O)[C@H](CC(N)=O)NC(=O)[C@H](Cc1c[nH]cn1)NC(=O)[C@H](N)CC(=O)O)C(=O)N[C@@H](CCCNC(=N)N)C(N)=O | Non-toxic | 101 | Active | Active | – | –
17 | C=CCCC[C@](C)(NC(=O)[C@@H](C)NC(=O)[C@H](CCC(N)=O)NC(=O)[C@@H]1CCCN1C(=O)[C@](C)(CCCC=C)NC(=O)[C@H](CC(N)=O)NC(=O)[C@H](Cc1c[nH]cn1)NC(=O)[C@@H](CC(=O)O)NC(=O)CCCCCCCCCCC)C(N)=O | – | 656 | Active | Active | Stable | Toxic
18 | CC[C@H](C)[C@@H]1NC(=O)[C@H](CCC(N)=O)NC(=O)[C@@H]2CCCN2C(=O)[C@@H](NC(=O)[C@H](CC(N)=O)NC(=O)[C@H](Cc2c[nH]cn2)NC(=O)[C@@H](N)CC(=O)O)CSCCCCCCCCSC[C@@H](C(N)=O)NC1=O (H-DHNCPQIC-NH2; linker 4-8 via Octanediyl(1,8)) | Non-toxic | 2.01 | Active | Active | Unstable | –
19 | H-HNNPQIRD-OH | Non-toxic | 0.57 | – | – | – | –
20 | C=CCCC[C@](C)(NC(=O)[C@H](Cc1c[nH]cn1)NC(=O)[C@@H](CC(=O)O)NC(=O)CCCCCCCCCCCCCCC)C(=O)N[C@H](CC(N)=O)C(=O)N1CCC[C@H]1C(=O)N[C@@H](CCC(N)=O)C(=O)N[C@H](C)C(=O)N[C@@H](CCCNC(=N)N)C(N)=O | Toxic | – | Active | Active | – | –
21 | C=CCCC[C@](C)(NC(=O)[C@H](CCC(N)=O)NC(=O)[C@@H]1CCCN1C(=O)[C@@H](CC(N)=O)NC(=O)[C@](C)(CCCC=C)NC(=O)[C@H](Cc1c[nH]cn1)NC(=O)[C@@H](CC(=O)O)NC(=O)CCCCCCCCCCC)C(=O)N[C@@H](CCCNC(=N)N)C(N)=O | – | 208 | Active | Active | Stable | Toxic
22 | C=CCCC[C@](C)(NC(=O)[C@H](Cc1c[nH]cn1)NC(=O)[C@@H](N)CC(=O)O)C(=O)N[C@H]1CSCCCCSC[C@@H](C(N)=O)NC(=O)[C@H]([C@@H](C)CC)NC(=O)[C@H](CCC(N)=O)NC(=O)[C@@H]2CCCN2C1=O (H-DH[S5]CPQIC-NH2; linker 4-8 via X4) | Non-toxic | 54.1 | Active | Active | – | –
23 | C=CCCC[C@H](NC(=O)[C@H](CCC(N)=O)NC(=O)[C@@H]1CCCN1C(=O)[C@H](CC(N)=O)NC(=O)[C@](C)(CCCC=C)NC(=O)[C@H](Cc1c[nH]cn1)NC(=O)[C@@H](N)CC(=O)O)C(=O)N[C@@H](CCCNC(=N)N)C(N)=O (H-DH[S5]NPQ[Gly(pent-4-enyl)]R-NH2) | Non-toxic | 0.9 | Active | Active | Stable | –
24 | CC[C@H](C)[C@H](NC(=O)[C@H](Cc1c[nH]cn1)NC(=O)[C@H](N)CC(=O)O)C(=O)N[C@H](CC(N)=O)C(=O)N1CCC[C@H]1C(=O)N[C@@H](CCC(N)=O)C(=O)N[C@H](C)C(=O)N[C@@H](CCCNC(=N)N)C(N)=O | Non-toxic | 125 | Active | Active | – | –
